Measurements published in patent publication US9833497B2, “Human originated EGF domain proteins and use of the same” (CHENGDU SOURCEBIO LIMITED-LIABILITY COMPANY, priority 2013, dated 2017).

Columns and labels:
Format in all cases: cell-based
E. coli DH5α = experiment: Antibacterial activity: MIC and growth curve against E. coli DH5α in 96-well plate; settings: minimal inhibitory concentration against E. coli DH5α; 96-well plate, 5×10^5 CFU/mL, 37° C., judged after 8 h
Outline: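 MIC taken as lowest protein level with no bacterial growth, tracked by A600 every 30 min during 37 °C, 175 rpm culture. Two-fold protein series 50-12.5 μg/mL final, triplicate wells, against 5×10^5 CFU/mL of LB-washed mid-log cells.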

E. coli BL21 = experiment: MIC against Gram-negative bacteria: E. coli BL21; settings: 5×10^5 CFU/mL
Outline: (§1)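 MIC = lowest concentration of recombinant protein showing no growth. Test proteins: purified human-derived EGF domain proteins, two-fold dilution series, three wells per concentration; inoculum 5×10^5 CFU/mL in LB; incubation 37° C with shaking at 175 rpm.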

Pseudomonas aeruginosa = experiment: MIC against Gram-negative bacteria: Pseudomonas aeruginosa; settings: 5×10^5 CFU/mL
Outline: as §1

Klebsiella pneumonia = experiment: MIC against Gram-negative bacteria: Klebsiella pneumonia; settings: 5×10^5 CFU/mL
Outline: as §1

Enterobacter cloacae = experiment: MIC against Gram-negative bacteria: Enterobacter cloacae; settings: 5×10^5 CFU/mL
Outline: as §1

Aeromonas hydrophila = experiment: MIC against Gram-negative bacteria: Aeromonas hydrophila; settings: 5×10^5 CFU/mL
Outline: as §1

Citrobacter diversus = experiment: MIC against Gram-negative bacteria: Citrobacter diversus; settings: 5×10^5 CFU/mL
Outline: as §1

Moraxella catarrhalis = experiment: MIC against Gram-negative bacteria: Moraxella catarrhalis; settings: 5×10^5 CFU/mL
Outline: as §1

Proteus mirabilis = experiment: MIC against Gram-negative bacteria: Proteus mirabilis; settings: 5×10^5 CFU/mL
Outline: as §1

Proteus vulgaris = experiment: MIC against Gram-negative bacteria: Proteus vulgaris; settings: 5×10^5 CFU/mL
Outline: as §1

Serratia marcescens = experiment: MIC against Gram-negative bacteria: Serratia marcescens; settings: 5×10^5 CFU/mL
Outline: as §1

[1] = Pseudomonas aeruginosa, 96-well plate, 37° C., 10 h
[2] = Klebsiella pneumonia, 96-well plate, 37° C., 10 h
[3] = Enterobacter cloacae, 96-well plate, 37° C., 10 h
[4] = Aeromonas hydrophila, 96-well plate, 37° C., 10 h
[5] = Citrobacter diversus, 96-well plate, 37° C., 10 h
[6] = Moraxella catarrhalis, 96-well plate, 37° C., 10 h
[7] = Proteus mirabilis, 96-well plate, 37° C., 10 h
[8] = Proteus vulgaris, 96-well plate, 37° C., 10 h
[9] = Serratia marcescens, 96-well plate, 37° C., 10 h
[10] = 10 h cultivation at 37° C., two-fold serial dilution

## PRT7 (TCLSSKEGTICSGNGVCSNELKCVCNRHWIGSDCN; listed as Homo sapiens)
E. coli DH5α
  MIC: 12.5 µg/mL
E. coli BL21; 96-well plate, 37° C., 10 h
  MIC (μg/mL) E. coli BL21: 25 µg/mL
Pseudomonas aeruginosa; [1]
  MIC (μg/mL) P. aeruginosa: 25 µg/mL
Klebsiella pneumonia; [2]
  MIC (μg/mL) K. pneumonia: 12.5 µg/mL
Enterobacter cloacae; [3]
  MIC (μg/mL) E. cloacae: 12.5 µg/mL
Aeromonas hydrophila; [4]
  MIC (μg/mL) A. hydrophila: 50 µg/mL
Citrobacter diversus; [5]
  MIC (μg/mL) C. diversus: 12.5 µg/mL
Moraxella catarrhalis; [6]
  MIC (μg/mL) M. catarrhalis: 25 µg/mL
Proteus mirabilis; [7]
  MIC (μg/mL) P. mirabilis: 50 µg/mL
Proteus vulgaris; [8]
  MIC (μg/mL) P. vulgaris: 50 µg/mL
Serratia marcescens; [9]
  MIC (μg/mL) S. marcescens: 12.5 µg/mL

## PRT44 (LYAQVSQSKPCERTGSCFSGRCVNSTCLCDPGWVGDQCQ; listed as Homo sapiens)
E. coli DH5α
  MIC: 12.5 µg/mL
E. coli BL21; 96-well plate, 37° C., 10 h
  MIC (μg/mL) E. coli BL21: 12.5 µg/mL
Pseudomonas aeruginosa; [1]
  MIC (μg/mL) P. aeruginosa: 25 µg/mL
Klebsiella pneumonia; [2]
  MIC (μg/mL) K. pneumonia: 12.5 µg/mL
Enterobacter cloacae; [3]
  MIC (μg/mL) E. cloacae: 12.5 µg/mL
Aeromonas hydrophila; [4]
  MIC (μg/mL) A. hydrophila: 25 µg/mL
Citrobacter diversus; [5]
  MIC (μg/mL) C. diversus: 12.5 µg/mL
Moraxella catarrhalis; [6]
  MIC (μg/mL) M. catarrhalis: 25 µg/mL
Proteus mirabilis; [7]
  MIC (μg/mL) P. mirabilis: 50 µg/mL
Proteus vulgaris; [8]
  MIC (μg/mL) P. vulgaris: 25 µg/mL
Serratia marcescens; [9]
  MIC (μg/mL) S. marcescens: 12.5 µg/mL

## PRT1053 (QLVSCPRNVSECSHDCVLTSEGPLCFCPEGSVLERDGKTCS; listed as Homo sapiens)
E. coli DH5α
  MIC: 12.5 µg/mL
E. coli BL21; [10]
  MIC E. coli BL21: 12.5 µg/mL
Pseudomonas aeruginosa; [10]
  MIC P. aeruginosa: 12.5 µg/mL
Klebsiella pneumonia; [10]
  MIC K. pneumonia: 50 µg/mL
Enterobacter cloacae; [10]
  MIC E. cloacae: 12.5 µg/mL
Aeromonas hydrophila; [10]
  MIC A. hydrophila: 50 µg/mL
Citrobacter diversus; [10]
  MIC C. diversus: 12.5 µg/mL
Moraxella catarrhalis; [10]
  MIC M. catarrhalis: 12.5 µg/mL
Proteus mirabilis; [10]
  MIC P. mirabilis: 100 µg/mL
Proteus vulgaris; [10]
  MIC P. vulgaris: 12.5 µg/mL
Serratia marcescens; [10]
  MIC S. marcescens: 100 µg/mL

## PRT751 (LCATGDHDCEQVCISSPGSYTCACHEGFTLNSDGKTCN; listed as Homo sapiens)
E. coli DH5α
  MIC: 12.5 µg/mL
E. coli BL21; 10 h cultivation at 37° C.
  MIC (μg/mL) E. coli BL21: 25 µg/mL
Pseudomonas aeruginosa; P. aeruginosa, 10 h cultivation at 37° C.
  MIC (μg/mL) P. aeruginosa: 50 µg/mL
Klebsiella pneumonia; K. pneumonia, 10 h cultivation at 37° C.
  MIC (μg/mL) K. pneumonia: 12.5 µg/mL
Enterobacter cloacae; E. cloacae, 10 h cultivation at 37° C.
  MIC (μg/mL) E. cloacae: 50 µg/mL
Aeromonas hydrophila; A. hydrophila, 10 h cultivation at 37° C.
  MIC (μg/mL) A. hydrophila: 25 µg/mL
Citrobacter diversus; C. diversus, 10 h cultivation at 37° C.
  MIC (μg/mL) C. diversus: 12.5 µg/mL
Moraxella catarrhalis; M. catarrhalis, 10 h cultivation at 37° C.
  MIC (μg/mL) M. catarrhalis: 25 µg/mL
Proteus mirabilis; P. mirabilis, 10 h cultivation at 37° C.
  MIC (μg/mL) P. mirabilis: 50 µg/mL
Proteus vulgaris; P. vulgaris, 10 h cultivation at 37° C.
  MIC (μg/mL) P. vulgaris: 25 µg/mL
Serratia marcescens; S. marcescens, 10 h cultivation at 37° C.
  MIC (μg/mL) S. marcescens: 12.5 µg/mL

## PRT28 (VDACLLNPCQNQGSCRHLPGAPHGYTCDCVGGYFGHHCE; listed as Homo sapiens)
E. coli DH5α
  MIC: 50 µg/mL
E. coli BL21; 96-well plate, 37° C., 10 h
  MIC (μg/mL) E. coli BL21: 25 µg/mL
Pseudomonas aeruginosa; [1]
  MIC (μg/mL) P. aeruginosa: 12.5 µg/mL
Klebsiella pneumonia; [2]
  MIC (μg/mL) K. pneumonia: 50 µg/mL
Enterobacter cloacae; [3]
  MIC (μg/mL) E. cloacae: 25 µg/mL
Aeromonas hydrophila; [4]
  MIC (μg/mL) A. hydrophila: 12.5 µg/mL
Citrobacter diversus; [5]
  MIC (μg/mL) C. diversus: 25 µg/mL
Moraxella catarrhalis; [6]
  MIC (μg/mL) M. catarrhalis: 50 µg/mL
Proteus mirabilis; [7]
  MIC (μg/mL) P. mirabilis: 12.5 µg/mL
Proteus vulgaris; [8]
  MIC (μg/mL) P. vulgaris: 25 µg/mL
Serratia marcescens; [9]
  MIC (μg/mL) S. marcescens: 50 µg/mL

## PRT1480 (PGPCDSQPCQNGGTCVPEGLDGYQCLCPLAFGGEANCA; listed as Homo sapiens)
E. coli DH5α
  MIC: 50 µg/mL
E. coli BL21; 10 h cultivation at 37° C.
  MIC against E. coli BL21: 12.5 µg/mL
Pseudomonas aeruginosa; Pseudomonas aeruginosa, 10 h cultivation at 37° C.
  MIC against P. aeruginosa: 25 µg/mL
Klebsiella pneumonia; Klebsiella pneumonia, 10 h cultivation at 37° C.
  MIC against K. pneumonia: 12.5 µg/mL
Enterobacter cloacae; Enterobacter cloacae, 10 h cultivation at 37° C.
  MIC against E. cloacae: 25 µg/mL
Aeromonas hydrophila; Aeromonas hydrophila, 10 h cultivation at 37° C.
  MIC against A. hydrophila: 12.5 µg/mL
Citrobacter diversus; Citrobacter diversus, 10 h cultivation at 37° C.
  MIC against C. diversus: 25 µg/mL
Moraxella catarrhalis; Moraxella catarrhalis, 10 h cultivation at 37° C.
  MIC against M. catarrhalis: 12.5 µg/mL
Proteus mirabilis; Proteus mirabilis, 10 h cultivation at 37° C.
  MIC against P. mirabilis: 50 µg/mL
Proteus vulgaris; Proteus vulgaris, 10 h cultivation at 37° C.
  MIC against P. vulgaris: 12.5 µg/mL
Serratia marcescens; Serratia marcescens, 10 h cultivation at 37° C.
  MIC against S. marcescens: 50 µg/mL

## PRT1266 (CMNKDHGCSHICKEAPRGSVACECRPGFELAKNQRDC; listed as Homo sapiens)
E. coli DH5α
  MIC: 50 µg/mL
E. coli BL21; 96-well plate, 37° C., 10 h
  MIC against E. coli BL21: 12.5 µg/mL
Pseudomonas aeruginosa; [1]
  MIC against P. aeruginosa: 25 µg/mL
Klebsiella pneumonia; [2]
  MIC against K. pneumonia: 50 µg/mL
Enterobacter cloacae; [3]
  MIC against E. cloacae: 25 µg/mL
Aeromonas hydrophila; [4]
  MIC against A. hydrophila: 25 µg/mL
Citrobacter diversus; [5]
  MIC against C. diversus: 12.5 µg/mL
Moraxella catarrhalis; [6]
  MIC against M. catarrhalis: 25 µg/mL
Proteus mirabilis; [7]
  MIC against P. mirabilis: 50 µg/mL
Proteus vulgaris; [8]
  MIC against P. vulgaris: 12.5 µg/mL
Serratia marcescens; [9]
  MIC against S. marcescens: 50 µg/mL
